Results on seven compounds are retold here after patent US6887691B2, “DNA coding for protein which confers on bacterium Escherichia coli resistance to L-homoserine, and method for producing L-amino acids” (priority 1998, dated 2005).

What all share (test): MIC of amino acids and amino acid analogues on M9 agar test plates
Common to all, as to format: cell-based

Experiment [1] concerns E. coli strain N99 rhtB::cat. Conditions: Escherichia coli. The protocol: To inactivate the chromosomal rhtB gene the plasmid pNPZ46 was constructed (FIG. 1) on the basis of pUK21 vector. It harbors a DNA fragment from 86 min of E. coli chromosome, with the rhtB gene and 5′-flanking and 3′-flanking regions thereof. Then the ClaI-Eco47III fragment of the pNPZ46 plasmid rhtB gene was substituted for AsuII-BsrBI fragment containing cat (Cm^R) gene of pACYC184 plasmid (Chang and Cohen, J. Bacteriol., 134, 1141-1156, 1978) giving the pNPZ47 plasmid (FIG. 1). To introduce the obtained insertionally inactivated rhtB gene into the chromosome of the E. coli strain N99 (the streptomycin-resistant derivative of the known strain W3350 (Campbell, Virology, 14, 22-33, 1961)), the method of Parker and Marinus was used (Parker, B. and Marinus, M. G., Gene, 73, 531-535, 1988).
(§1) Then the susceptibility of the thus obtained E. coli strain N99 rhtB::cat, of the initial strain N99 (rhtB^+) and of its derivative transformed with pRhtB plasmid, N99/pRhtB, to some amino acids and amino acid analogues was tested. overnight cultures of the strains grown in M9 minimal medium at 37° C. with a rotary shaker (10^9 cfu/ml) were diluted 1:100 and grown for 5 hours under the same conditions. Then the log phase cultures thus obtained were diluted and about 10^4 of alive cells were applied to well-dried test plates with M9 agar containing doubling increments of amino acids or analogues. The minimum inhibitory concentration (MIC) of these compounds were examined after 40-46 h cultivation.

For another experiment, the system named is E. coli strain N99/pRhtB. The conditions noted are these: Escherichia coli. Here is the method:
as §1

Experiment [2] has as its system E. coli strain N99 (rhtB+). Conditions: Escherichia coli, initial strain, doubling increments, examined after 40-46 h cultivation. The protocol:
as §1

One may read the MIC as the least concentration at which growth counts as inhibited. As for `NCCSC[C@H](N)C(=O)O` [AEC, S-(2-aminoethyl)-L-cysteine, reference compound], the MIC in experiment [1] amounted to 10 mg/L; in the experiment with E. coli strain N99/pRhtB, 25 mg/L; in experiment [2] it was 10 mg/L.

Turning to `CC(C)[C@H](N)C(=O)O` [L-valine], the MIC was found to be 0.5 mg/L in experiment [1], 1 mg/L with E. coli strain N99/pRhtB and 0.5 mg/L in experiment [2].

Consider `N[C@@H](CCO)C(=O)O` [L-homoserine], for which the MIC was 125 mg/L in experiment [1], 30000 mg/L in the experiment on E. coli strain N99/pRhtB and 250 mg/L in experiment [2].

As for `N[C@@H](CO)C(=O)O` [L-serine], the MIC came to 5000 mg/L in experiment [1], 10000 mg/L in the experiment on E. coli strain N99/pRhtB and 5000 mg/L in experiment [2].

Turning to `CN(C)CC(N)C(=O)O` (racemic) [4-aza-DL-leucine, reference compound], the MIC stood at 40 mg/L in experiment [1], 100 mg/L in the experiment with E. coli strain N99/pRhtB and 40 mg/L in experiment [2].

Turning to `CCCC(N)(O)C(=O)O` (stereo not drawn) [AHVA, α-amino-α-hydroxyvaleric-acid, reference compound], the MIC in experiment [1] came to 25 mg/L; with E. coli strain N99/pRhtB, 2000 mg/L; in experiment [2], 50 mg/L.

As for `C[C@@H](O)[C@H](N)C(=O)O` [L-threonine], the MIC in experiment [1] was found to be 30000 mg/L; in the experiment with E. coli strain N99/pRhtB, 50000 mg/L; in experiment [2], 30000 mg/L.
